Paper PMC8835475, “Salviolone from Salvia miltiorrhiza Roots Impairs Cell Cycle Progression, Colony Formation, and Metalloproteinase-2 Activity in A375 Melanoma Cells: Involvement of P21(Cip1/Waf1) Expression and STAT3 Phosphorylation” (International Journal of Molecular Sciences, 2022)

Experiments:
Format in all cases: cell-based, human
A375 melanoma cell line = test: SRB cell viability assay in A375 cells; details: for EC50: Homo sapiens, A-375, read-out: half maximal effective concentration (EC50) able to reduce cell viability; for EC50 / effect on cell viability / A375 cell viability, inhibitor administered alone: A375, SRB, 72 h; for effect on cell viability: at least until 40 µM; for potentiation of the decrease of A375 cell viability induced by 20 µM salviolone or cryptotanshinone: 10 µM inhibitor added 2 h before the diterpene; for A375 cell viability, inhibitor administered alone: concentration-dependent
Procedure: (§1) In preliminary experiments, the evaluation of cell viability at different time after compound administration was carried out with sulforhodamine B (SRB) assay. Indeed, after 24-, 48-, and 72-h treatment, an evident time dependence in the inhibition of cell growth was registered (data not shown). Thus, to evaluate A375 and MeWo cell viability, we decided to perform further SRB experiments with each compound only after 72 h.
(§2) Human MeWo (HTB-65) and A375 (CRL-1619) melanoma cell lines as well as the normal human epidermal melanocyte (NHEM) (PCS-200-013) cell line (ATCC, Manassas, VA, USA) were cultured at 37 °C under 5% CO2 in a humidified atmosphere. Roswell Park Memorial Institute 1640 medium (RPMI, Gibco, Ref.21875, Thermo Scientific, Waltham, MA, USA) was used to culture MeWo cells, while Dulbecco’s Modified Eagle Medium (DMEM, Gibco, Ref. 61965, Thermo Scientific, Waltham, MA, USA) was used for A375 and NHEM cell lines. The culture media were supplemented with 10% fetal bovine serum (FBS, Gibco, Thermo Scientific, Waltham, MA, USA) plus 1% Antibiotic Antimycotic Solution (Gibco, Thermo Scientific). The MEK1 inhibitor U0126 (CAY-70970) and the PI3K inhibitor LY294002 (CAY-70920) were provided by Cayman Chemical, Ann Arbor, MI, USA.
(§3) Melanoma MeWo and A375 cells or NHEM were seeded in 96-well plates (5.0 × 10^3 cells/well for MeWo cells and 2.9 × 10^3 cells/well for A375 or NHEM). After 24-h culture, the cells were treated with different concentrations of compounds 1–7. After 72-h treatment, the cells were fixed by adding 25 µL/well of 50% (w/v) TCA directly into the culture medium. The plates were incubated at 4 °C for 1 h, washed four times with ddH2O, and dried at RT. Staining was performed by adding 50 µL/well of 0.04% (w/v) sulforhodamine B (SRB) sodium salt solution (Sigma-Aldrich, Milan, Italy). After 1-h incubation at RT, the plates were rinsed with 1% HAc and air-dried. SRB was solubilized in a 10 mM Tris-base solution pH 10.5 and Abs492 measured in the plate reader TECAN NanoQuant Infinite M200 Pro (Tecan Group Ltd., Männedorf, Switzerland). Six replicates for each condition/data point were performed.

MeWo melanoma cell line = test: SRB cell viability assay in MeWo cells; details: SRB, 72 h; for EC50: Homo sapiens, read-out: EC50 useful in diminishing cell viability; for effect on cell viability: at least until 40 µM
Procedure: as §1, §2, §3

pERK1/2 = test: Immunoblot of pERK1/2 in A375 cells; details: 10 µM U0126 with compound 4 or 7 at 20 µM
Procedure: (§4) A375 cells were seeded in 6 cm Petri dishes (190 300 cell/dish) and treated with different compounds at 10 or 20 μM. After 48- or 72-h treatment, the cells were scraped using warm 1× sample buffer (2% SDS, 10% glycerol, 50 mM Tris-HCl, 1.75% β-mercaptoethanol, and bromophenol blue) and boiled at 99 °C for 10 min. Total protein extracts were kept at −80 °C until use.
(§5) Protein extracts were analyzed with a 7.5 or 10% polyacrylamide SDS-PAGE and transferred to a polyvinylidene difluoride membrane (PVDF, Thermo Fisher Scientific, Waltham, MA, USA). The membranes were blocked at RT for 1 h with TBST buffer (10 mM Tris-HCl pH 7.5, 100 mM NaCl, 0.1% Tween20) containing 4% Milk (Formulat). Then, they were incubated on a shaker, overnight (ON) at 4 °C, with 5% BSA solution containing primary antibodies against p-Tyr705-STAT3 (#9145, 1:1000), pRb (#8516, 1:2000), pERK (#4370, 1:1000), pAkt (#4060, 1:2000), pSer15-P53 (#9286, 1:2000) (Cell Signaling Technology, Danvers, […], USA), Akt (GTX121937, 1:3000), ERK (GTX134452, 1:6000), Cyclin A2 (GTX-103042, 1:3000), p-Thr160Cdk2 (GTX-133862, 1:3000), p21 (GTX-629543, 1:3000) (Genetex, Alton Pkwj Irvine, CA, USA), p53 (Sc-263, 1:1000), STAT3 (Sc-482, 1:1000), and p-Ser727-STAT3 (Sc-136193, 1:1000) (Santa Cruz Biotechnology, Dallas, TX, USA). The membranes were washed three times with TBST buffer for 30 min and then incubated for 1 h with a horseradish-peroxidase-conjugated secondary antibody (anti-rabbit 1:6000, Genetex), (anti-mouse, 1:4000, Cell Signaling Technology, Danvers, […], USA). They were washed another three times for 30 min with TBST buffer. All protein extracts were normalized with a β-actin protein antibody (GTX-124214, 1:10,000; Genetex, Alton Pkwj Irvine, CA, USA). Immuno-detection was carried out with an ECL kit (GE-Healthcare, Little Chalfont, UK), and the chemiluminescence signals were detected with ChemiDoc (Bio-Rad, Hercules, CA, USA).

pAkt = test: Immunoblot of pAkt in A375 cells; details: 10 µM LY294002 with compound 7 or 4 at 20 µM
Procedure: as §4, §5

`Cc1coc2c1C(=O)C(=O)c1c-2ccc2c1CCCC2(C)C` [Compound 1, tanshinone IIA] gave an EC50 (A375 melanoma cell line) of ~1 µM and an EC50 (MeWo melanoma cell line) of 2 µM.

`Cc1coc2c1C(=O)C(=O)c1c-2ccc2c1[C@@H](O)CCC2(C)C` [Compound 2, 1α-hydroxytanshinone] was tested, and the “effect on cell viability” value (A375 melanoma cell line) was “ineffective” and the “effect on cell viability” value (MeWo melanoma cell line) was “ineffective”.

For `Cc1coc2c1C(=O)C(=O)c1c-2ccc2c1C(=O)CCC2(C)C` [Compound 3, 1-oxotanshinone], the “effect on cell viability” value (A375 melanoma cell line) was “ineffective” and the “effect on cell viability” value (MeWo melanoma cell line) was “ineffective”.

In the case of `C[C@H]1COC2=C1C(=O)C(=O)c1c2ccc2c1[C@H](O)CCC2(C)C` [Compound 5, 1β-hydroxycryptotanshinone], the “activity rating for inhibition of melanoma cell viability” value (A375 melanoma cell line; A375 and MeWo, SRB) is reported as “poorly active”, the EC50 (A375 melanoma cell line) is reported as ~42 µM and the EC50 (MeWo melanoma cell line) is reported as 45 µM.

With `CC1COc2c1c(=O)oc(=O)c1c3c(ccc21)C(C)(C)CCC3O` (stereo not drawn) [Compound 6, 1α-hydroxyanhydride-16R-cryptotanshinone] the “effect on cell viability” value (A375 melanoma cell line) was “ineffective” and the “effect on cell viability” value (MeWo melanoma cell line) was “ineffective”.

`N#CC(=C(/N)Sc1ccccc1N)/C(C#N)=C(/N)Sc1ccccc1N` [Compound U0126, reference compound] was tested, and the “pERK1/2 expression level on co-administration” value (pERK1/2) was “strongly inhibited”, the “potentiation of the decrease of A375 cell viability induced by 20 µM salviolone or cryptotanshinone” value (A375 melanoma cell line) was “did not potentiate” and the “A375 cell viability, inhibitor administered alone” value (A375 melanoma cell line) was “inhibited”.

`O=c1cc(N2CCOCC2)oc2c(-c3ccccc3)cccc12` [LY294002, reference compound] was tested, and the “potentiation of the decrease of A375 cell viability induced by 20 µM salviolone or cryptotanshinone” value (A375 melanoma cell line) was “did not potentiate”, the “A375 cell viability, inhibitor administered alone” value (A375 melanoma cell line) was “inhibited” and the “pAkt expression level on co-administration” value (pAkt) was “inhibition”.
